Molecules are shown by their SMILES.

One assay concerns the target T1, TDO (Homo sapiens, UniProt P48775).
T1 construct: endogenous in cells; host or cells: SW48 cells (A2780 cells as control with minimal TDO activity)
Description: TDO Cellular Assay in Frozen SW48 Cells. It counts as cell-based. Conditions: 300 uM L-tryptophan, about 48 hours, fluorescence readout. The procedure: TDO Cellular Assay in Frozen SW48 Cells
SW48 cells were cultured in complete RPMI culture medium (90% RPMI, 10% heat-inactivated fetal bovine serum).
Compounds to be tested were serially diluted in ten 3-fold steps in DMSO starting from 10 mM DMSO stocks in Echo low volume plate(s). […] The cells were spun down at 350 g in a table top centrifuge for 5 minutes and suspended in same volume of RPMI assay medium. […] Sterile L-tryptophan (Sigma, Cat # T0254) was added to the cells with final concentration of 300 uM.
SW48 and A2780 cells were dispensed to the respective wells of 384-well assay plates containing the compounds. The plates were incubated for about 48 hours at a 37° C., 5% CO2 incubator. Afterwards, 12 μL of 0.5 M ethyl isonipecotate (Sigma Aldrich, Cat # E33505) in dimethyl sulfoxide were added into each well and the plates were sealed and incubated at 37° C. without CO2 overnight. The plates were centrifuged for 1 minute at 200×g. The resulting fluorescence was measured in a Spectramax plate reader (Molecular Devices) with a 400 nm excitation filter and a 510 nm emission filter.
The fluorescence intensity of each well was corrected for the background observed in wells with A2780 cells and was expressed as a fraction of the intensity observed in wells of SW48 cells and DMSO only. Potencies were calculated by linear least squares fit to the four parameter logistic IC50 equation.

A further assay addresses IDO1 (Homo sapiens, UniProt P14902). Description: IDO1 Cellular Assay in Hela Cells Stimulated with IFNγ. The assay is classed as cell-based. Also noted: endogenous in cells; host or cells: HeLa cells stimulated with IFNγ (100 ng/mL). Particulars: Hela cells stimulated with IFNγ 100 ng/mL, 300 uM L-tryptophan, about 48 hours, fluorescence readout. The procedure: IDO1 Cellular Assay in Hela Cells Stimulated with IFNγ
Hela cells were cultured in complete Hela culture medium (90% EMEM, 10% heat-inactivated fetal bovine serum) and expanded to about 1×10^9 cells. The cells were then collected and frozen down at 1×10^7 cells/vial in 1 mL frozen medium (90% complete Hela culture medium, 10% DMSO)
Compounds to be tested were serially diluted in ten 3-fold steps in DMSO starting from 10 mM DMSO stocks in Echo low volume plate(s).
Frozen Hela cells were thawed and transferred into Hela assay medium (99% complete Hela culture medium, 1% Pen/Strep) with 20 mL medium/vial of cells. The cells were spun down at 250 g in a table top centrifuge for 5 min and suspended in same volume of Hela assay medium. The cells were then counted and adjusted to a density of 2×10^5 cells/ml in Hela assay medium. Sterile L-tryptophan were added to the cells with final concentration of 300 uM L-tryptophan. A small aliquot (2 mL/plate) of Hela cells were set aside and were not treated with IFNγ, to serve as the Max-E control.
Hela cells with and without IFNγ were dispensed to the respective wells of 384-well assay plates containing the compounds. The plates were incubated for about 48 hours at a 37° C., 5% CO2 incubator. Afterwards, […] of 0.5 M methyl isonipecotate in dimethyl sulfoxide were added into each well and the plates were sealed and incubated at 37° C. without CO2 overnight. The plates were centrifuged for 1 min at 200×g. The resulting fluorescence was measured in a Spectramax plate reader (Molecular Devices) with a 400 nm excitation filter and a 510 nm emission filter.
Potencies were calculated by linear least squares fit to the four parameter logistic IC50 equation.

T1 sequence (P48775 whole entry): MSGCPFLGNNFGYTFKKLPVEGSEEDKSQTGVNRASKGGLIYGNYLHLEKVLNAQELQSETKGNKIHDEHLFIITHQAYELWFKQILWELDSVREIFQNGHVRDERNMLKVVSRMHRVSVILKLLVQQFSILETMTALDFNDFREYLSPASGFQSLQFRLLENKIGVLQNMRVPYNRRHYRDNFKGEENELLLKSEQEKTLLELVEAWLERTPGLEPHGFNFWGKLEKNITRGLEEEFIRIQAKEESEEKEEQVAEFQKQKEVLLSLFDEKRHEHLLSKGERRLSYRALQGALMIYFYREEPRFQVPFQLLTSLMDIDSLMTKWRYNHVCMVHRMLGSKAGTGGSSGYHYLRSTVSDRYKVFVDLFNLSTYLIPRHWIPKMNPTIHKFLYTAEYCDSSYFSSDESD
Sequence of IDO1 (P14902 whole entry): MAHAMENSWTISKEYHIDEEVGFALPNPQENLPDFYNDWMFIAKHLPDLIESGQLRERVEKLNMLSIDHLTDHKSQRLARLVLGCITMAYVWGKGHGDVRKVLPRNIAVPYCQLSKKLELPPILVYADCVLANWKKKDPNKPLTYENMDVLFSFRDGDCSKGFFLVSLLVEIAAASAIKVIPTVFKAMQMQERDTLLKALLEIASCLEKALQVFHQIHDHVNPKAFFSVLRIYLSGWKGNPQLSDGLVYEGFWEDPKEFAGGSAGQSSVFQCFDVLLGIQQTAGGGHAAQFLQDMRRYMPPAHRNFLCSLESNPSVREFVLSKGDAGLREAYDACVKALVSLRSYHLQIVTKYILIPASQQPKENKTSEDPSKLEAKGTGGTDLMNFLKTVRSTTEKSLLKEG

Broadly, the IC50 is the point on the concentration scale where inhibition reaches its midpoint. A low value points to greater potency. For the compound `O=C(Nc1ccc(C2(C(=O)Nc3ccc(F)cc3F)CCC2)cc1)c1cccc(Cl)c1` [Example 25, 3-chloro-N-(4-{1-[(2,4-difluorophenyl)carbamoyl]cyclobutyl}phenyl) benzamide], the IC50 against TDO was not below 10000 nM; against IDO1, 3 nM.
Turning to `O=C(Nc1ccc(C2(C(=O)Nc3ccc(F)c(F)c3)CCC2)cc1)c1cccc(Cl)c1` [Example 26, 3-chloro-N-(4-{1-[(3,4-difluorophenyl)carbamoyl]cyclobutyl}phenyl) benzamide], the IC50 against TDO is not below 10000 nM; against IDO1, 3 nM.
In the case of `O=C(Nc1ccc(C2(C(=O)Nc3ccc(F)nc3)CCC2)cc1)c1cccc(Cl)c1` [Example 29, 3-chloro-N-(4-{1-[(6-fluoropyridin-3-yl)carbamoyl]cyclobutyl}phenyl)benzamide], the IC50 against TDO is not below 10000 nM; at IDO1, 4 nM.
On the same counts, the results for `CCC1CC1NC(=O)C1(c2ccc(NC(=O)c3cccc(Cl)c3)cc2)CCC1` (stereo not shown) [Example 31, 3-chloro-N-(4-{1-[(2-ethylcyclopropyl)carbamoyl]cyclobutyl}phenyl)benzamide] are not below 10000 nM and 8 nM.
For the compound `CCOC1CC1NC(=O)C1(c2ccc(NC(=O)c3cccc(Cl)c3)cc2)CCC1` (stereo not shown) [Example 36, 3-chloro-N-(4-{1-[(2-ethoxycyclopropyl)carbamoyl]cyclobutyl}phenyl) benzamide], the IC50 is not below 10000 nM at TDO and 24 nM against IDO1.
On the same counts, the results for `O=C(Nc1ccc(C2(C(=O)NC3CC3C(F)F)CCC2)cc1)c1cccc(Cl)c1` (stereo not shown) [Example 37, 3-chloro-N-[4-(1-{[2-(difluoromethyl)cyclopropyl]carbamoyl}cyclobutyl)phenyl] benzamide] are not below 10000 nM and 28 nM.
On the same counts, the results for `O=C(Nc1ccc(C2(C(=O)NC3CCCOC3)CCC2)cc1)c1cccc(Cl)c1` (stereo not shown) [Example 40, 3-chloro-N-(4-{1-[(oxan-3-yl)carbamoyl]cyclobutyl}phenyl)benzamide] are not below 10000 nM and 39 nM.
Regarding `CC1(C)CC(NC(=O)C2(c3ccc(NC(=O)c4cccc(Cl)c4)cc3)CCC2)CCO1` (stereo not shown) [Example 42, 3-chloro-N-(4-{1-[(2,2-dimethyloxan-4-yl)carbamoyl]cyclobutyl}phenyl)benzamide], the values for the half-inhibitory concentration (IC50) on TDO and against IDO1 were not below 10000 nM and 119 nM, respectively.
On the same counts, the results for `O=C(Nc1ccc(C2(C(=O)NC3CN(CC(F)(F)F)C3)CCC2)cc1)c1cccc(Cl)c1` [Example 44, 3-chloro-N-[4-(1-{[1-(2,2,2-trifluoroethyl)azetidin-3-yl]carbamoyl}cyclobutyl)phenyl]benzamide] are not below 10000 nM and 709 nM.
On the same counts, the results for `CCOC(C)CNC(=O)C1(c2ccc(NC(=O)c3cccc(Cl)c3)cc2)CCC1` (stereo not shown) [Example 45, 3-Chloro-N-(4-(1-((2-ethoxypropyl)carbamoyl)cyclobutyl)phenyl)benzamide] are not below 10000 nM and 58 nM.
Take `O=C(Nc1ccc(C2(C(=O)NCC(F)(F)F)CCC2)cc1)c1cccc(Cl)c1` [Example 49, 3-chloro-N-(4-{1-[(2,2,2-trifluoroethyl)carbamoyl]cyclobutyl}phenyl) benzamide]: the figures for the IC50 on TDO and on IDO1 were not below 10000 nM and 126 nM, respectively.
On the same counts, the results for `O=C(Nc1ccc(C2(C(=O)N[C@H]3CCOC3)CCC2)cc1)c1cccc(Cl)c1` [Example 51, 3-chloro-N-[4-(1-{[(3S)-oxolan-3-yl]carbamoyl}cyclobutyl)phenyl]benzamide] are not below 10000 nM and 404 nM.
On the same counts, the results for `O=C(Nc1ccc(C2(C(=O)N[C@@H]3CCOC3)CCC2)cc1)c1cccc(Cl)c1` [Example 52, 3-chloro-N-[4-(1-{[(3R)-oxolan-3-yl]carbamoyl}cyclobutyl)phenyl]benzamide] are not below 10000 nM and 427 nM.
On the same counts, the results for `O=C(Nc1ccc(C2(C(=O)NS(=O)(=O)c3ccccc3)CCC2)cc1)c1cccc(Cl)c1` [Example 53, 3-chloro-N-(4-{1-[(phenylsulfonyl)carbamoyl]cyclobutyl}phenyl) benzamide] are not below 10000 nM and 834 nM.
In the case of `O=C(Nc1cccc(Cl)c1F)c1ccc(C2(C(=O)Nc3ccc(F)cn3)CCC2)cc1` [Example 59, N-(3-chloro-2-fluorophenyl)-4-(1-((5-fluoropyridin-2-yl)carbamoyl)cyclobutyl)benzamide], the IC50 against TDO is not below 10000 nM; against IDO1, 17 nM.
On the same counts, the results for `O=C(NC1CCCCC1)c1ccc(C2(C(=O)Nc3ccc(F)cn3)CCC2)cc1` [Example 60, N-cyclohexyl-4-{1-[(5-fluoropyridin-2-yl)carbamoyl]cyclobutyl} benzamide] are not below 10000 nM and 489 nM.
Consider `O=C(NC1CCC(F)(F)CC1)c1ccc(C2(C(=O)Nc3ccc(F)cn3)CCC2)cc1` [Example 61, N-(4,4-difluorocyclohexyl)-4-{1-[(5-fluoropyridin-2-yl)carbamoyl]cyclobutyl} benzamide], for which the concentration for half-maximal inhibition (IC50) against TDO was not below 10000 nM; on IDO1 it was 1810 nM.
For the compound `CCO[C@@H]1C[C@@H]1NC(=O)C1(c2ccc(NC(=O)c3cccc(Cl)c3)cc2)CC(F)(F)C1` [Example 64, 3-chloro-N-[4-(1-{[(1S,2R)-2-ethoxycyclopropyl]carbamoyl}-3,3-difluorocyclobutyl)phenyl] benzamide], the IC50 is not below 10000 nM at TDO and 37 nM on IDO1.
On the same counts, the results for `CCOC1CC1NC(=O)C1(c2ccc(NC(=O)c3cccc(Cl)c3)cc2)CC(F)(F)C1` (stereo not shown) [Example 65] are not below 10000 nM and 71 nM.
On the same counts, the results for `CCO[C@H]1C[C@H]1NC(=O)C1(c2ccc(NC(=O)c3cccc(Cl)c3)cc2)CC(F)(F)C1` [Example 66, 3-chloro-N-[4-(1-{[(1R,2S)-2-ethoxycyclopropyl]carbamoyl}-3,3-difluorocyclobutyl)phenyl] benzamide] are not below 10000 nM and 89 nM.
Take `CCO[C@H]1C[C@@H]1NC(=O)C1(c2ccc(NC(=O)c3cccc(Cl)c3)cc2)CC(F)(F)C1` [Example 67, 3-chloro-N-[4-(1-{[(lS,2S)-2-ethoxycyclopropyl]carbamoyl}-3,3-difluorocyclobutyl)phenyl] benzamide]: the IC50 is not below 10000 nM against TDO and 207 nM against IDO1.
On the same counts, the results for `CCO[C@@H]1C[C@H]1NC(=O)C1(c2ccc(NC(=O)c3cccc(Cl)c3)cc2)CC(F)(F)C1` [Example 68, 3-chloro-N-[4-(1-{[(1R,2R)-2-ethoxycyclopropyl]carbamoyl}-3,3-difluorocyclobutyl)phenyl] benzamide] are not below 10000 nM and 1440 nM.
Consider `O=C(Nc1ccc(C2(C(=O)NCCC(F)(F)F)CC(F)(F)C2)cc1)c1cccc(Cl)c1` [Example 69, 3-chloro-N-(4-{3,3-difluoro-1-[(3,3,3-trifluoropropyl)carbamoyl]cyclobutyl}phenyl) benzamide], for which the IC50 against TDO was not below 10000 nM; on IDO1 it was 56 nM.
`O=C(Nc1ccc(C2(C(=O)Nc3ccc(F)cc3)CC(F)(F)C2)cc1)c1cccc(F)c1` [Example 72, N-(4-(3,3-Difluoro-1-((4-fluorophenyl)carbamoyl)cyclobutyl)phenyl)-3-fluorobenzamide]: the values for the half-maximal inhibitory concentration (IC50) on TDO and on IDO1 were not below 10000 nM and 4 nM, respectively.
With `N#Cc1cccc(C(=O)Nc2ccc(C3(C(=O)Nc4ccc(F)cc4)CC(F)(F)C3)cc2)c1` [Example 73, 3-cyano-N-(4-{3,3-difluoro-1-[(4-fluorophenyl)carbamoyl]cyclobutyl}phenyl) benzamide], the IC50 at TDO was not below 10000 nM; at IDO1, 4 nM.
On the same counts, the results for `O=C(Nc1ccc(C2(C(=O)Nc3ccc(F)cc3)CC(F)(F)C2)cc1)c1cc(Cl)ccn1` [Example 74, 4-chloro-N-(4-{3,3-difluoro-1-[(4-fluorophenyl)carbamoyl]cyclobutyl}phenyl) pyridine-2-carboxamide] are not below 10000 nM and 5 nM.

For the origin of these results see patent publication US11319283B2, “Substituted cyclobutylbenzene compounds as indoleamine 2,3-dioxygenase (IDO) inhibitors” (MERCK SHARP & DOHME CORP., priority 2017, dated 2022).
